Measured values: ChEMBL document CHEMBL1949590, “Discovery of a novel class of orally active trypanocidal N-myristoyltransferase inhibitors” (J Med Chem, 2012)
The source made the active and inactive calls. No cut-off for these calls is given here.

How the values were obtained:
[1] = molecular target: T1, Glycylpeptide N-tetradecanoyltransferase 1 (Homo sapiens, UniProt P30419)
T1 sequence (P30419 whole entry): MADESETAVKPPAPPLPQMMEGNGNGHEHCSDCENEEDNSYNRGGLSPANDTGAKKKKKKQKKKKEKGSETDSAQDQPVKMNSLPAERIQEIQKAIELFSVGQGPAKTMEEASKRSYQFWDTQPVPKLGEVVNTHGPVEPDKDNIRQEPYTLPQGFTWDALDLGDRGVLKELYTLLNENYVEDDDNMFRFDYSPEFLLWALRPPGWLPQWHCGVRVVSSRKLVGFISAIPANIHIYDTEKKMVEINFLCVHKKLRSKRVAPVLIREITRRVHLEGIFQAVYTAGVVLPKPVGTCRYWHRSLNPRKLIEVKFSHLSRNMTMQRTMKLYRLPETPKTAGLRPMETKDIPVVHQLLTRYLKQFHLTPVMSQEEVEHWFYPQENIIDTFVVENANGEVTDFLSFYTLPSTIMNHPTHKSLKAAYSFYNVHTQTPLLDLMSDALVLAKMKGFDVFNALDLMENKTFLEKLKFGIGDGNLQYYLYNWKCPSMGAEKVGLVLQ

[2] = Fraction unbound in mouse plasma; assay type: ADME, cell-free
Trypanosoma brucei = experiment: Antimicrobial activity against blood stream form Trypanosoma brucei BSF427 expressing VSG118 after 69 hrs by resazurin-based fluorescent assay; assay type: functional, organism-based; settings: BSF427, 69 h
[3] = tested on: Trypanosoma brucei brucei; experiment: Antitrypanosomal activity against Trypanosoma brucei brucei GVR35 infected in NMRI mouse assessed as increase in survival time at 20 mg/kg, ip qd for 5 days measured after 180 days; assay type: functional; settings: route intraperitoneal
[4] = tested on: Trypanosoma brucei brucei; experiment: Antitrypanosomal activity against Trypanosoma brucei brucei GVR35 infected in NMRI mouse assessed as increase in survival time at 100 mg/kg, po bid administered on day 21 post infection for 5 days after 21 days relative to control; assay type: functional, organism-based; design: dose 100 mg/kg
[5] = Dissociation constant, pKa of the compound; assay type: physicochemical

## Cc1nn(C)c(C)c1NS(=O)(=O)c1ccc(N2CCC(N3CCNCC3)C2)nc1 (stereo not given)
[1]
  IC50: 1.6 µM

## Cc1nn(C)c(C)c1NS(=O)(=O)c1c(Cl)cc(-c2ccnc(N3CCNCC3)c2)cc1Cl [listing 1 of 2 here]
[2]
  fraction unbound: 0.11

## Cc1nn(C)c(C)c1NS(=O)(=O)c1ccc(NCCN2CCN(Cc3ccccc3)CC2)nc1
[1]
  IC50: > 10 µM

## Cc1nn(C)c(C)c1NS(=O)(=O)c1ccc(NCCN2CCN(c3ccccc3)CC2)nc1
[1]
  IC50: > 1 µM

## Cc1nn(C)c(C)c1NS(=O)(=O)c1c(Cl)cc(-c2cccc3cnccc23)cc1Cl
[1]
  IC50: > 100 µM

## Cc1nn(C)c(C)c1NS(=O)(=O)c1c(Cl)cc(-c2cccc3c2CCNC3)cc1Cl
[1]
  IC50: 4.3 µM

## Cc1nn(C)c(C)c1NS(=O)(=O)c1c(Cl)cc(-c2ccc(CN3CCN(C)CC3)cc2)cc1Cl
[1]
  IC50: 4.2 µM
Trypanosoma brucei
  EC50: 3.6 µM

## Nc1nc(N)nc(Nc2ccc([As]3SCC(CO)S3)cc2)n1 (stereo not given) [MELARSOPROL]
[3]
  survival at 20 mg/kg: 100%

## Cc1nn(C)c(C)c1NS(=O)(=O)c1c(Cl)cc(-c2ccnc(N3CCNCC3)c2)cc1Cl [listing 2 of 2 here]
[4]
  Survival: inactive

## Cc1nn(C)c(C)c1NS(=O)(=O)c1ccc(NCCN2CCNCC2)nc1
[5]
  pKa: 9.3

## Cc1nn(C)c(C)c1NS(=O)(=O)c1ccc(NCCN2CCN(C)CC2)nc1
[5]
  pKa: 7.9

## Cc1nn(C)c(C)c1NS(=O)(=O)c1ccc(NCCN2CCN(C(C)C)CC2)nc1
[1]
  IC50: > 1 µM

## Cc1nn(C)c(C)c1NS(=O)(=O)c1ccc(NCc2ccc3[nH]ccc3c2)nc1
[1]
  IC50: 2.7 µM

## Cc1nn(C)c(C)c1NS(=O)(=O)c1ccc(Cl)nc1
[1]
  IC50: > 100 µM

## Cc1nn(C)c(C)c1NS(=O)(=O)c1ccc(NCCCN2CCN(C)CC2)nc1
[1]
  IC50: 2.4 µM

## Cc1nn(C)c(C)c1NS(=O)(=O)c1ccc(NCCC2CCN(C)CC2)nc1
[5]
  pKa: 9.6

## Cc1nn(C)c(C)c1NS(=O)(=O)c1ccc(NCCCn2ccnc2)nc1
[1]
  IC50: 8.7 µM
[5]
  pKa: 7.1

## Cc1nn(C)c(C)c1NS(=O)(=O)c1ccc(NCCN2CCN(C(=O)OC(C)(C)C)CC2)nc1
[1]
  IC50: > 10 µM
